Laboratory results: ChEMBL document CHEMBL1681651, “A broad spectrum anticancer nucleoside with selective toxicity against human colon cells in vitro” (2011)

Key:
Format in all cases: functional
[1] = system: NCI/ADR-RES; assay: Growth inhibition of human NCI/ADR-RES cells assessed as cell growth at 100 uM after 48 hrs by SRB assay; details: read-out: Activity
[2] = Growth inhibition of human […] cells after 48 hrs by […] growth inhibition assay
[3] = system: Malme-3M; assay: Growth inhibition of human MALME-3M cells assessed as cell growth at 1 mM after 48 hrs by SRB assay; details: read-out: Activity
[4] = system: SK-MEL-2; assay: Growth inhibition of human SK-MEL-2 cells after 48 hrs by […] growth inhibition assay; details: SK-MEL-2, 48 h
[5] = system: COLO 205; assay: Growth inhibition of human COLO205 cells assessed as cell growth at 0.1 uM after 48 hrs by SRB assay; details: COLO 205, 48 h, read-out: Activity
[6] = system: MDA-MB-435; assay: Growth inhibition of human MDA-MB-435 cells assessed as cell growth at 1 mM after 48 hrs by SRB assay; details: MDA-MB-435, 48 h, read-out: Activity
[7] = system: EKVX; assay: Growth inhibition of human EKVX cells assessed as cell growth at 0.1 uM after 48 hrs by SRB assay; details: read-out: Activity
[8] = system: CAKI-1; assay: Growth inhibition of human Caki1 cells after 48 hrs by […] growth inhibition assay; details: CAKI-1, 48 h
[9] = system: IGROV-1; assay: Growth inhibition of human IGROV1 cells assessed as cell growth at 1 mM after 48 hrs by SRB assay; details: IGROV-1, 48 h, read-out: Activity
[10] = system: Malme-3M; assay: Growth inhibition of human MALME-3M cells assessed as cell growth at 10 uM after 48 hrs by SRB assay; details: read-out: Activity
[11] = system: SF-295; assay: Growth inhibition of human SF295 cells assessed as cell growth at 1 uM after 48 hrs by SRB assay; details: SF-295, 48 h, read-out: Activity
[12] = system: SF-295; assay: Growth inhibition of human SF295 cells after 48 hrs by […] growth inhibition assay; details: SF-295, 48 h
[13] = system: SNB-75; assay: Growth inhibition of human SNB75 cells assessed as cell growth at 100 uM after 48 hrs by SRB assay; details: SNB-75, 48 h, read-out: Activity
[14] = system: HCC 2998; assay: Growth inhibition of human HCC2998 cells assessed as cell growth at 0.1 uM after 48 hrs by SRB assay; details: HCC 2998, 48 h, read-out: Activity
[15] = system: SF-268; assay: Growth inhibition of human SF268 cells assessed as cell growth at 10 uM after 48 hrs by SRB assay; details: SF-268, 48 h, read-out: Activity
[16] = system: MCF7; assay: Growth inhibition of human MCF7 cells assessed as cell growth at 10 uM after 48 hrs by SRB assay; details: MCF7, 48 h, read-out: Activity
[17] = system: UACC-257; assay: Growth inhibition of human UACC257 cells assessed as cell growth at 1 mM after 48 hrs by SRB assay; details: UACC-257, 48 h, read-out: Activity
[18] = system: CCRF-CEM; assay: Growth inhibition of human CCRF-CEM cells assessed as cell growth at 1 mM after 48 hrs by SRB assay; details: read-out: Activity
[19] = system: A549; assay: Growth inhibition of human A549 cells assessed as cell growth at 100 uM after 48 hrs by SRB assay; details: A549, 48 h, read-out: Activity
[20] = system: SF-268; assay: Growth inhibition of human SF268 cells after 48 hrs by […] growth inhibition assay; details: SF-268, 48 h
[21] = system: NCI-H322M; assay: Growth inhibition of human NCI-H322M cells assessed as cell growth at 100 uM after 48 hrs by SRB assay; details: read-out: Activity
[22] = system: ACHN; assay: Growth inhibition of human ACHN cells assessed as cell growth at 10 uM after 48 hrs by SRB assay; details: read-out: Activity
[23] = system: MDA-MB-231; assay: Growth inhibition of human MDA-MB-231 cells assessed as cell growth at 100 uM after 48 hrs by SRB assay; details: MDA-MB-231, 48 h, read-out: Activity
[24] = Growth inhibition of human […] cells assessed as cell growth at 1 mM after 48 hrs by SRB assay; details: read-out: Activity
[25] = system: M14; assay: Growth inhibition of human M14 cells assessed as cell growth at 100 uM after 48 hrs by SRB assay; details: M14, 48 h, read-out: Activity
[26] = system: SK-MEL-2; assay: Growth inhibition of human SK-MEL-2 cells assessed as cell growth at 1 uM after 48 hrs by SRB assay; details: SK-MEL-2, 48 h, read-out: Activity
[27] = system: NCI-H322M; assay: Growth inhibition of human NCI-H322M cells assessed as cell growth at 1 uM after 48 hrs by SRB assay; details: read-out: Activity
[28] = system: M14; assay: Growth inhibition of human M14 cells assessed as cell growth at 1 uM after 48 hrs by SRB assay; details: M14, 48 h, read-out: Activity
[29] = system: OVCAR-8; assay: Growth inhibition of human OVCAR8 cells assessed as cell growth at 0.1 uM after 48 hrs by SRB assay; details: OVCAR-8, 48 h, read-out: Activity
[30] = system: SF-539; assay: Growth inhibition of human SF539 cells assessed as cell growth at 100 uM after 48 hrs by SRB assay; details: SF-539, 48 h, read-out: Activity
[31] = system: T47D; assay: Growth inhibition of human T47D cells assessed as cell growth at 0.1 uM after 48 hrs by SRB assay; details: read-out: Activity
[32] = system: HCC 2998; assay: Growth inhibition of human HCC2998 cells assessed as cell growth at 10 uM after 48 hrs by SRB assay; details: HCC 2998, 48 h, read-out: Activity
[33] = system: UACC-62; assay: Growth inhibition of human UACC62 cells assessed as cell growth at 1 mM after 48 hrs by SRB assay; details: UACC-62, 48 h, read-out: Activity
[34] = system: HCT-116; assay: Growth inhibition of human HCT116 cells assessed as cell growth at 1 uM after 48 hrs by SRB assay; details: HCT-116, 48 h, read-out: Activity
[35] = system: UACC-62; assay: Growth inhibition of human UACC62 cells assessed as cell growth at 10 uM after 48 hrs by SRB assay; details: UACC-62, 48 h, read-out: Activity
[36] = read-out: LC50 (the source's name)
[37] = read-out: pLC50 (the source's name) (converted)

CCOC(=O)C[C@H]1[C@@H](O[Si](C)(C)C(C)(C)C)[C@H](n2cnc3c(NC(=O)Nc4ccccc4)ncnc32)O[C@@H]1CNC(=O)NC
growth at 100 µM [1]: 80%
GI50 ([2]; read-out: GI50): 1090 nM
CC50 [2, 36]: 59 µM
TGI ([2]; read-out: TGI): 4.57 µM
GI50 ([2]; read-out: pGI50 (converted)): 1100 nM
CC50 [2, 37]: 58.9 µM
TGI ([2]; read-out: pTGI (converted)): 4.57 µM
growth at 1000 µM [3]: 17%
GI50 ([4]; read-out: GI50): 5.42 µM
CC50 [4, 36]: > 100 µM
TGI ([4]; read-out: TGI): 33.1 µM
GI50 ([4]; read-out: pGI50 (converted)): 5.37 µM
CC50 [4, 37]: > 100 µM
TGI ([4]; read-out: pTGI (converted)): 33.1 µM
growth at 0.1 µM [5]: 102%
growth at 1000 µM [6]: 8%
growth at 0.1 µM [7]: 92%
GI50 ([8]; read-out: GI50): 29.7 µM
CC50 [8, 36]: > 100 µM
TGI ([8]; read-out: TGI): > 100 µM
GI50 ([8]; read-out: pGI50 (converted)): 29.5 µM
CC50 [8, 37]: > 100 µM
TGI ([8]; read-out: pTGI (converted)): > 100 µM
growth at 1000 µM [9]: -58%
growth at 10 µM [10]: 92%
growth at 1 µM [11]: 91%
GI50 ([12]; read-out: GI50): 5.73 µM
LC50 ([12]; read-out: LC50): > 100 µM
TGI ([12]; read-out: TGI): > 100 µM
GI50 ([12]; read-out: pGI50 (converted)): 5.75 µM
LC50 ([12]; read-out: pLC50 (converted)): > 100 µM
TGI ([12]; read-out: pTGI (converted)): > 100 µM
growth at 100 µM [13]: 32%
growth at 0.1 µM [14]: 101%
growth at 10 µM [15]: 93%
growth at 10 µM [16]: 89%
growth at 1000 µM [17]: 9%
growth at 1000 µM [18]: -2%
growth at 100 µM [19]: 23%
GI50 ([20]; read-out: GI50): 6.53 µM
CC50 [20, 36]: 92.5 µM
TGI ([20]; read-out: TGI): 27 µM
GI50 ([20]; read-out: pGI50 (converted)): 6.61 µM
CC50 [20, 37]: 93.3 µM
TGI ([20]; read-out: pTGI (converted)): 26.9 µM
growth at 100 µM [21]: 89%
growth at 10 µM [22]: 96%
growth at 100 µM [23]: 20%
growth at 1000 µM [24]: -57%
growth at 100 µM [25]: 4%
growth at 1 µM [26]: 94%
growth at 1 µM [27]: 90%
growth at 1 µM [28]: 82%
growth at 0.1 µM [29]: 99%
growth at 100 µM [30]: 29%
growth at 0.1 µM [31]: 91%
growth at 10 µM [32]: 93%
growth at 1000 µM [33]: 60%
growth at 1 µM [34]: 113%
growth at 10 µM [35]: 97%

CNC(=O)OC[C@H]1O[C@@H](n2cnc3c(NC(=O)Nc4ccccc4)ncnc32)[C@H](O[Si](C)(C)C(C)(C)C)[C@@H]1O[Si](C)(C)C(C)(C)C
growth at 10 µM [10]: 114%
growth at 10 µM [15]: 85.2%
growth at 10 µM [16]: 87.8%
growth at 10 µM [22]: 94.6%
growth at 10 µM [35]: 106%

CNC(=O)NC[C@H]1O[C@@H](n2cnc3c(NC(=O)Nc4ccccc4)ncnc32)[C@H](O[Si](C)(C)C(C)(C)C)[C@@H]1O[Si](C)(C)C(C)(C)C
growth at 100 µM [1]: 10%
GI50 ([2]; read-out: GI50): 3270 nM
CC50 [2, 36]: > 100 µM
TGI ([2]; read-out: TGI): > 100 µM
GI50 ([2]; read-out: pGI50 (converted)): 3310 nM
CC50 [2, 37]: > 100 µM
TGI ([2]; read-out: pTGI (converted)): > 100 µM
growth at 1000 µM [3]: -48%
GI50 ([4]; read-out: GI50): 2.45 µM
CC50 [4, 36]: > 100 µM
TGI ([4]; read-out: TGI): 55.4 µM
GI50 ([4]; read-out: pGI50 (converted)): 2.45 µM
CC50 [4, 37]: 28.2 µM
TGI ([4]; read-out: pTGI (converted)): 5.5 µM
growth at 0.1 µM [5]: 109%
growth at 1000 µM [6]: -10%
growth at 0.1 µM [7]: 105%
GI50 ([8]; read-out: GI50): 2.7 µM
CC50 [8, 36]: > 100 µM
TGI ([8]; read-out: TGI): 7.93 µM
GI50 ([8]; read-out: pGI50 (converted)): 2.69 µM
CC50 [8, 37]: > 100 µM
TGI ([8]; read-out: pTGI (converted)): 7.94 µM
growth at 1000 µM [9]: -39%
growth at 10 µM [10]: 96%
growth at 1 µM [11]: 107%
GI50 ([12]; read-out: GI50): 3.84 µM
LC50 ([12]; read-out: LC50): > 100 µM
TGI ([12]; read-out: TGI): 31.8 µM
GI50 ([12]; read-out: pGI50 (converted)): 3.8 µM
LC50 ([12]; read-out: pLC50 (converted)): > 100 µM
TGI ([12]; read-out: pTGI (converted)): 31.6 µM
growth at 100 µM [13]: 14%
growth at 0.1 µM [14]: 100%
growth at 10 µM [15]: 102%
growth at 10 µM [16]: 83%
growth at 1000 µM [17]: -24%
growth at 1000 µM [18]: 4%
growth at 100 µM [19]: 4%
GI50 ([20]; read-out: GI50): 3.58 µM
CC50 [20, 36]: > 100 µM
TGI ([20]; read-out: TGI): 14 µM
GI50 ([20]; read-out: pGI50 (converted)): 3.55 µM
CC50 [20, 37]: > 100 µM
TGI ([20]; read-out: pTGI (converted)): 14.1 µM
growth at 100 µM [21]: 39%
growth at 10 µM [22]: 105%
growth at 100 µM [23]: -29%
growth at 1000 µM [24]: 4%
growth at 100 µM [25]: 19%
growth at 1 µM [26]: 110%
growth at 1 µM [27]: 106%
growth at 1 µM [28]: 107%
growth at 0.1 µM [29]: 108%
growth at 100 µM [30]: 7%
growth at 0.1 µM [31]: 101%
growth at 10 µM [32]: 106%
growth at 1000 µM [33]: -39%
growth at 1 µM [34]: 105%
growth at 10 µM [35]: 90%
